The source of these data is PMC6864590, “Planar Cell Polarity Effector Proteins Inturned and Fuzzy Form a Rab23 GEF Complex” (Current Biology, 2019).

Each structure is given as a SMILES string. Where a chain is given by its changes, count along the chain named.

For assay [1], the target named is T1, Rab23 (Homo sapiens, UniProt Q9ULC3, M12K).
T1 construct: hexahistidine-GST-tagged (pFAT2), expressed in E. coli BL21(DE3) pRIL, Ni-NTA purified, tags kept
T1 sequence (Q9ULC3 1-237 M12K limits assumed): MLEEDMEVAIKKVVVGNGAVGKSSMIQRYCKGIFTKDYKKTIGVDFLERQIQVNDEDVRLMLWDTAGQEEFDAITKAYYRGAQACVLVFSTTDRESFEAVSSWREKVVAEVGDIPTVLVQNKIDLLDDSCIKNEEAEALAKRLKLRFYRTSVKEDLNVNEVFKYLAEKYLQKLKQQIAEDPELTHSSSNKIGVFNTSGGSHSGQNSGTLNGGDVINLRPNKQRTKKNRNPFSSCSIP
The experiment in a line: basal GTP hydrolysis endpoint, charcoal assay. In kind it is biochemical. As to conditions: labelled compound; 30°C, 60 min, no GAP.

For assay [2], the target named is T2, Rab23 (Homo sapiens, UniProt Q9ULC3, N121I).
T2 construct: hexahistidine-GST-tagged (pFAT2), expressed in E. coli BL21(DE3) pRIL, Ni-NTA purified, tags kept
T2 sequence (Q9ULC3 1-237 N121I limits assumed): T1 sequence (Q9ULC3 1-237 M12K limits assumed) with K12M, N121I
The experiment in a line: basal GTP hydrolysis endpoint, charcoal assay. In kind it is biochemical. As to conditions: labelled compound; 30°C, 60 min, no GAP.

For assay [3], the target named is T3, Rab23 (Homo sapiens, UniProt Q9ULC3).
T3 construct: hexahistidine-GST-tagged (pFAT2), expressed in E. coli BL21(DE3) pRIL, Ni-NTA purified, tags kept
T3 sequence (Q9ULC3 1-237 limits assumed): T1 sequence (Q9ULC3 1-237 M12K limits assumed) with K12M
In words: basal GTP hydrolysis endpoint, charcoal assay. The format is biochemical. As to conditions: labelled compound; 30°C, 60 min, no GAP.

Assay [4] deals with T4, Rab23 (Homo sapiens, UniProt Q9ULC3, C85R).
T4 construct: hexahistidine-GST-tagged (pFAT2), expressed in E. coli BL21(DE3) pRIL, Ni-NTA purified, tags kept
T4 sequence (Q9ULC3 1-237 C85R limits assumed): T1 sequence (Q9ULC3 1-237 M12K limits assumed) with K12M, C85R
The experiment in a line: basal GTP hydrolysis endpoint, charcoal assay. The format is biochemical. As to conditions: labelled compound; 30°C, 60 min, no GAP.

Assay [5] deals with T2, Rab23. The experiment in a line: radiolabelled nucleotide binding, GST pull-down. As to conditions: labelled compound; pH 6.8.
The next assay addresses T5, Rab32 (Homo sapiens, UniProt Q13637).
T5 construct: GST-tagged (pFAT2), expressed in E. coli BL21(DE3) pRIL, Ni-NTA purified
T5 sequence (Q13637 2-225): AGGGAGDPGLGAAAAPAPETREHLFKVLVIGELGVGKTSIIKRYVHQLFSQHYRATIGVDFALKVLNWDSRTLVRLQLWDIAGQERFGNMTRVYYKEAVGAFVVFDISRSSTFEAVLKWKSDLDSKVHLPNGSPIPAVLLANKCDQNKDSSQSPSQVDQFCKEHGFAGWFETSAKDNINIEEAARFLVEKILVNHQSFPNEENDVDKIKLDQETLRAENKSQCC
In words: [3H]-GDP release GEF endpoint assay, glutathione-Sepharose capture. The format is binding. As to conditions: labelled compound; Hps1-Hps4 GEF, Mg-GTP, pH 6.8, 30°C.

Assay [6] concerns the target T1, Rab23. The experiment in a line: radiolabelled nucleotide binding, GST pull-down. As to conditions: labelled compound; pH 6.8.
Assay [7] has as its target T4, Rab23. The experiment in a line: radiolabelled nucleotide binding, GST pull-down. As to conditions: labelled compound; pH 6.8.
Assay [8] has as its target T3, Rab23. In words: [3H]-GDP release GEF endpoint assay, glutathione-Sepharose capture. The format is binding. As to conditions: labelled compound; Intu-Fuz GEF, Mg-GTP, pH 6.8, 30°C.
The next assay addresses T6, Rab38 (Homo sapiens, UniProt P57729).
T6 construct: GST-tagged (pFAT2), expressed in E. coli BL21(DE3) pRIL, Ni-NTA purified
T6 sequence (P57729 1-211): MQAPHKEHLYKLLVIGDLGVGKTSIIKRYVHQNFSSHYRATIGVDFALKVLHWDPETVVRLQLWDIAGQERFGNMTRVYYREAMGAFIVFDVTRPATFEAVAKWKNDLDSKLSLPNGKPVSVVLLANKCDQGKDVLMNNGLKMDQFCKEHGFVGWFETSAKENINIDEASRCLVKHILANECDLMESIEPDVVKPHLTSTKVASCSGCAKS
Described as above. The format is binding. As to conditions: labelled compound; Hps1-Hps4 GEF, Mg-GTP, pH 6.8, 30°C.

The next assay deals with T7, Rab7 (Homo sapiens, UniProt P51149).
T7 construct: gene RAB7A; GST-tagged (pFAT2), expressed in E. coli BL21(DE3) pRIL, Ni-NTA purified
T7 sequence (P51149 2-207): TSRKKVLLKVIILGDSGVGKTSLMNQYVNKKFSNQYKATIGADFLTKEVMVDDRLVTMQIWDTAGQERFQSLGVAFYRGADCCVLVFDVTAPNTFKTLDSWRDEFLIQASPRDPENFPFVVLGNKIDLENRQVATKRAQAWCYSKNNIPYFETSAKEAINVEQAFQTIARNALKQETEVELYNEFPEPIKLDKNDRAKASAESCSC
Described as above. In kind it is binding. As to conditions: labelled compound; Mon1-Ccz1 GEF, Mg-GTP, pH 6.8, 30°C.

Regarding `Nc1nc2c(ncn2[C@@H]2O[C@H](COP(=O)(O)OP(=O)(O)OP(=O)(O)O)[C@@H](O)[C@H]2O)c(=O)[nH]1` [GTP], the GTP hydrolysis result at Rab23 [1], at Rab23 [2], at Rab23 [3] and at Rab23 [4] was “show an increased rate of basal GTP-hydrolysis (Figure S3H)” throughout.
With `Nc1nc2c(ncn2[C@@H]2O[C@H](COP(=O)(O)OP(=O)(O)O)[C@@H](O)[C@H]2O)c(=O)[nH]1` [GDP], the GDP binding result at Rab23 [5] was “Both Rab23^N121I and the two disease-associated mutants have reduced GDP-binding properties (Figure S3G)”; at Rab23 [6], “Both Rab23^N121I and the two disease-associated mutants have reduced GDP-binding properties (Figure S3G)”; on Rab23 [7], “Both Rab23^N121I and the two disease-associated mutants have reduced GDP-binding properties (Figure S3G)”. Besides, the “GDP-GTP exchange (pmol)” value at Rab32 is “comparable to the Rab7 and Rab32/38-specific GEFs Mon1-Ccz1 and Hps1-Hps4, respectively (Figure 1D)”; on Rab23 [8], “Intu-Fuz complexes show specific GEF activity toward Rab23”; on Rab38, “comparable to the Rab7 and Rab32/38-specific GEFs Mon1-Ccz1 and Hps1-Hps4, respectively (Figure 1D)”; at Rab7, “comparable to the Rab7 and Rab32/38-specific GEFs Mon1-Ccz1 and Hps1-Hps4, respectively (Figure 1D)”.
